The values that follow come from patent EP3572468B1, “CYANINE DYES AND THEIR USAGE FOR IN VIVO STAINING OF MICROORGANISMS” (PHILIPPS-UNIVERSITÄT MARBURG, priority 2018, dated 2019).

Entries after “also recorded” stand apart in the source; their conditions may differ.

Series [1] has as its system Escherichia coli (E. coli) NEB5α. Briefly: Bacteria culture and staining: growth and FACS labeling of E. coli. Format: cell-based. The method, then:
(§1) Escherichia coli (E. coli) NEB5α (New England Biolabs) and antibiotic-resistant and -sensitive Klebsiella pneumoniae (K. pneumoniae) were cultured in Luria-Bertani (LB) solid medium (LB-Agar) overnight at 37°C. The source of the K. pneumoniae strands is of no relevance to the invention. The invention may be applied to all types of microorganisms (bacteria, viri, fungi etc.) or other cells, either contained within a sample or isolated from a sample. For staining, growth curve analysis and replating experiments bacteria were suspended in LB liquid medium at an OD600 nm of 1.0 and 800 µL were transferred into a culture tube containing 7.2 mL of LB liquid medium supplemented with DMSO or candidate dyes (2.5 µM) final concentration). Density of bacterial cultures was measured using an Ultrospec 10 Cell Density Meter with 600 nm LED source (Amersham Biosciences). For bacterial re-plating experiments bacteria were sampled at OD600 nm = 2.0 and 5 µL of indicated dilutions in LB-medium were spotted onto LB-agar plates (Fig. 5) or 100 µL were plated onto LB-agar plates followed by incubation at 37°C until colonies became visible.
Bacteria and macrophages were washed with PBS prior to flow cytometry and analysed using a Guava easyCyte flow cytometer (Millipore). FCS3.0 files were analysed using Flowing Software (http://flowingsoftware.btk.fi/). Cells were first gated in the forward- / side-scatter plot to exclude debries, followed by quadrant gating in plots using the fluorescence channels as shown above. For discrimination of live/dead cell discrimination cells in PBS were supplemented with 0.4 µL/mL propidium-iodide (5 mg/ml solution) followed by 5 min incubation on ice. Propidium iodide signal was recorded in the yellow channel.

The nature of series [2]: Molar extinction coefficient determination. The settings on record: in milli-Q water; absorbance maximum at 625 nm. Format: physicochemical. How it is done: The concentration determination and measurement of full UV-Vis spectra were performed on a Tecan 20M at room temperature. The measurements were performed in a 1400 µL quarz cuvette with a pathlength of 1 cm in a volume of 1 mL.
For the accurate determination of our compounds 6-TramTO-3 the extinction coefficient was calculated. A specific amount (< 2.00 mg) of the compound was weighted on a Mettler Toledo XP6 and dissolved in a known amount of milli-Q water. Increasing amounts of such stock solution were added into a 1 mL cuvette filled with 1 ml of milli-Q water. The corresponding absorbance of each addition was measured on a Tecan Spark 20M at the maximum at 625 nm and without exceeding 10% of the initial volume. In all the cases the absorbance was between 0.1 and 1 AU. to be in concordance with Lambert-Beer law (equation E2). A = ε l c [formula]
In this equation (E2): A = absorbance of the solution; I = length of the cuvette; c = concentration; ε = molar extinction coefficient.
The lineal regression of the obtained absorbance measurements versus the concentrations of 6-TramTO-3 allowed us to obtain the molar extinction coefficient. These measurements were repeated three times independently i.e. from three different stock solutions. The mean extinction coefficient and the standard deviation of 6-TramTO-3 at a wavelength of 625 nm in milli-Q water was 59403 ±646 M^-1cm^-1.
The mean extinction coefficient and the standard deviation of 6-NH2TO-3 and 6-AzTO-3 were determined following the above described procedure. The extinction coefficient of 6-NH2TO-3 was determined in milli-Q water, whereas the extinction coefficient of 6-AzTO-3 was determined in DMSO due to its low aqueous solubility. […] For the spectrum of 6-AzTO-3 1% of DMSO was added for a better solubility. Fig. 20 and Fig. 21 show the linear regressions from the three independent measurements. Table 4 summarized the molar extinction coefficient obtained. Table 4: Determined mean extinction coefficients and standard deviations of 6-AzTO-3 in DMSO and 6-TramTO-3 and 6-NH2TO-3 in milli-Q water.

Series [3] deals with antibiotic-resistant Klebsiella pneumoniae (K. pneumoniae). Format: cell-based. The settings on record: 2.5 µM dye. How it is done:
as §1, with “For bacterial re-plating experiments bacteria were sampled at OD600 nm = 2.0 and 5 µL of indicated dilutions in LB-medium were spotted onto LB-agar plates (Fig. 5) or 100 µL were plated onto LB-agar plates followed by incubation at 37°C until colonies became visible.” left out
Bacteria and macrophages were washed with PBS prior to flow cytometry and analysed using a Guava easyCyte flow cytometer (Millipore). FCS3.0 files were analysed using Flowing Software (http://flowingsoftware.btk.fi/). Cells were first gated in the forward- / side-scatter plot to exclude debries, followed by quadrant gating in plots using the fluorescence channels as shown above. […] Propidium iodide signal was recorded in the yellow channel.

The nature of series [4]: Excitation and emission spectra. Format: physicochemical. To be noted: aqueous solution; 10 µM in 10 mM Tris pH 7.6 and 50 mM KCI. The method, then:
Fluorescence measurements and tritations were performed on a Jasco FP-6500 spectrofluorometer equipped with a Thermo Haake WKL 26 water recirculator at 20°C. Unless otherwise noted, a 1400 µL fluorescence cuvette of HellmaAnalytics (104F-QS) was used and the measurements were performed with the following settings: increment: 1.0 nm; integration time: 0.2 s; speed: 500 nm/min; sensitivity: medium; excitation slit width: 3 nm; emission slit width: 3 nm; excitation wavelength 610 nm. The emission spectra were recorded from 625 to 750 nm at 20°C. From all spectra, the corresponding background signal was substracted. The used hairpin double-stranded DNAs dsDNAhAT and dsDNAhGC had the sequences depicted in Table. 1. Table 1: Binding sites and sequences of DNA hairpins, which were used for fluorescence titrations experiments.
For each cyanine dye derivative: 6-AzTO-3, 6-TramTO-3 and 6-NH2TO-3, the excitation and emission spectra of a 10 µM solution of the corresponding compound in 1 mL of 10 mM Tris pH 7.6 and 50 mM KCI were measured. The excitation spectra were recorded at an emission of 670 nm in a rage from 500 - 660 nm (slit 5/10 nm), while the emission spectra were measured at an excitation of 590 nm in a range from 600 - 750 nm (slit 5/10 nm). (cf. Fig. 13)

Regarding `CC[n+]1ccc(/C=C/C=C2\Sc3ccccc3N2CCCCCCn2cc(CN)nn2)c2ccccc21.[I-]` [6-TramTO-3, 4-((1E,3Z)-3-(3-(6-(4-(aminomethyl)-1H-1,2,3-triazol-1-yl)hexyl)benzo[d]thiazol-2(3H)-ylidene)prop-1-en-1-yl)-1-ethylquinolin-1-ium iodide], the “bacterial growth in presence of dye” value is given as “fully compatible with normal bacterial growth; also recorded: grew normally” in series [1] (2.5 µM dye in LB medium, OD600 over time, liquid and solid medium); “grew normally” in series [3]. In addition, the “fluorescent labeling of live bacteria (FACS)” value in series [1] (2.5 µM dye in culture medium, FACS at mid-exponential growth phase (OD600 = 2.0)) was “successfully fluorescently labeled”; in series [3] (OD600 = 2.0), “successfully fluorescently labeled”. In series [2], this molecule displayed a mean extinction coefficient of 59403 ± 646 M⁻¹ cm⁻¹. Besides, in series [4], the “long wavelength maximum of emission” value is on record as 645 nm. In addition, the “long wavelength maximum of excitation” value in series [4] is recorded as 633 nm.
